US6787342B2, “Paste formulations” (Merial Limited, priority 2000, dated 2004)

How the values were obtained:
[1] = system: Cooperia onocophora and Nematodirus; details: against Cooperia onocophora and Nematodirus; cited from earlier work
[2] = Thermodynamic stability of polymorphic forms (DSC, Burger's rule); format: physicochemical; details: monotropic system
Source text: When heated, form A transforms to form B depending on the heating rate.
Therefore, the transition A→B is under kinetic control as usual in case of polymorphism. The transition from A to B may also be followed by XRay under heating (FIG. 12).

[3] = Carr Index (compressibility/flowability) of unmilled polymorphic forms; format: physicochemical
Source text: After crystallization and before micronization, the Carr Index of B form is lower than 10 (in %). The Can Index CI is defined as [formula] where P is the packed bulk density (g cm^−3), L is the loose bulk density (g cm 3). CI is also known as a compressibility index. A low figure for Cl corresponds to a high degree of flowability. The Carr Index way be calculated from Mercury Intrusion Porosimetry or measured by Tap-Tap.

| Compound | ivermectin plasma level required for efficacy [1] | thermodynamic stability of polymorphic form [2] | thermodynamic stability of polymorphic form ([2]; listed as B form) | Carr Index ([3]; after crystallization and before micronization) | flow characteristics ([3]; compared with Polymorph A) |
| --- | --- | --- | --- | --- | --- |
| 22,23-dihydro avermectin Bla/Blb [ivermectin] | 3 to 4 ng/mL |  |  |  |  |
| CC1(C)OC(=O)C(OCC2CC2)=C1c1ccc(S(C)(=O)=O)cc1 [Polymorph B, 3-(cyclopropylmethoxy)-4-[4-(methylsulfonyl)phenyl]-5,5-dimethyl-5H-furan-2-one] |  | thermodynamically more stable than Polymorph A | the most stable form | lower than 10% | better flow characteristics than Polymorph A |
